Where two headings read alike, the source gives them in different places.
Legend:
WEE1 = molecular target: T1, WEE1 (Homo sapiens, UniProt P30291+Q96SW2); experiment: Western-blot assay of substrate protein degradation in hPBMCs, WEE1; assay type: cell-based; conditions: 24 hours of compound treatment, compounds tested at 50 nM and 500 nM (concentration of the table not stated)
T1 construct: endogenous in cells; host or cells: hPBMCs (Milecell Biotechnologies)

IKZF1 = molecular target: T2, IKZF1 (Homo sapiens, UniProt Q13422+Q96SW2); experiment: Western-blot assay of substrate protein degradation in hPBMCs, IKZF1; assay type: cell-based; conditions: 24 hours of compound treatment, compounds tested at 50 nM and 500 nM (concentration of the table not stated)
T2 construct: endogenous in cells; host or cells: hPBMCs (Milecell Biotechnologies)
T2 sequence (Q13422 whole entry): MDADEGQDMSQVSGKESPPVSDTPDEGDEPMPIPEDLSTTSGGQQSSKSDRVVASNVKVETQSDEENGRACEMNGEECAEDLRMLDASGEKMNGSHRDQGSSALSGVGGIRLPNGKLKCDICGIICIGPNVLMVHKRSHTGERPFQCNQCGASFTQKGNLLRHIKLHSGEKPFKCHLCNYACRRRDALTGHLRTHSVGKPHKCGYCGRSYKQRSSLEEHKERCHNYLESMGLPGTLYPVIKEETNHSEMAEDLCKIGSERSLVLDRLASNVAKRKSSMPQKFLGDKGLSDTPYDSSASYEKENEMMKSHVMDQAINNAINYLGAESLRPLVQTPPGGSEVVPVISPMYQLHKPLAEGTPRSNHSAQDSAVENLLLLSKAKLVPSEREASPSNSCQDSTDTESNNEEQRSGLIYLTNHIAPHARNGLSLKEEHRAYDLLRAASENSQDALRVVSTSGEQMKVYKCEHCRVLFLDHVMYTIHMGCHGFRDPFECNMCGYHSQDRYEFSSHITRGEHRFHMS
T2 sequence (Q96SW2 whole entry): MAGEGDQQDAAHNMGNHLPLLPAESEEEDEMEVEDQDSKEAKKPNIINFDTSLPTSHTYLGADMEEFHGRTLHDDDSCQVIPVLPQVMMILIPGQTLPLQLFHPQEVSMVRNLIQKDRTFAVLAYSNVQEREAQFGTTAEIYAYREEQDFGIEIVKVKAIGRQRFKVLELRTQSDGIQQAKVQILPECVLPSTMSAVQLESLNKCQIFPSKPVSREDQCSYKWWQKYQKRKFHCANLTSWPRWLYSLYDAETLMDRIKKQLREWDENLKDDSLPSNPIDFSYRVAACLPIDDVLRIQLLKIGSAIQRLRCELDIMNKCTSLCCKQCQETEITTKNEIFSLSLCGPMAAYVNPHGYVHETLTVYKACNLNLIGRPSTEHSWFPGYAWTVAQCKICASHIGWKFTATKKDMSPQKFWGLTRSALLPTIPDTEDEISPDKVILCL
T2 sequence (Q16531 whole entry partner): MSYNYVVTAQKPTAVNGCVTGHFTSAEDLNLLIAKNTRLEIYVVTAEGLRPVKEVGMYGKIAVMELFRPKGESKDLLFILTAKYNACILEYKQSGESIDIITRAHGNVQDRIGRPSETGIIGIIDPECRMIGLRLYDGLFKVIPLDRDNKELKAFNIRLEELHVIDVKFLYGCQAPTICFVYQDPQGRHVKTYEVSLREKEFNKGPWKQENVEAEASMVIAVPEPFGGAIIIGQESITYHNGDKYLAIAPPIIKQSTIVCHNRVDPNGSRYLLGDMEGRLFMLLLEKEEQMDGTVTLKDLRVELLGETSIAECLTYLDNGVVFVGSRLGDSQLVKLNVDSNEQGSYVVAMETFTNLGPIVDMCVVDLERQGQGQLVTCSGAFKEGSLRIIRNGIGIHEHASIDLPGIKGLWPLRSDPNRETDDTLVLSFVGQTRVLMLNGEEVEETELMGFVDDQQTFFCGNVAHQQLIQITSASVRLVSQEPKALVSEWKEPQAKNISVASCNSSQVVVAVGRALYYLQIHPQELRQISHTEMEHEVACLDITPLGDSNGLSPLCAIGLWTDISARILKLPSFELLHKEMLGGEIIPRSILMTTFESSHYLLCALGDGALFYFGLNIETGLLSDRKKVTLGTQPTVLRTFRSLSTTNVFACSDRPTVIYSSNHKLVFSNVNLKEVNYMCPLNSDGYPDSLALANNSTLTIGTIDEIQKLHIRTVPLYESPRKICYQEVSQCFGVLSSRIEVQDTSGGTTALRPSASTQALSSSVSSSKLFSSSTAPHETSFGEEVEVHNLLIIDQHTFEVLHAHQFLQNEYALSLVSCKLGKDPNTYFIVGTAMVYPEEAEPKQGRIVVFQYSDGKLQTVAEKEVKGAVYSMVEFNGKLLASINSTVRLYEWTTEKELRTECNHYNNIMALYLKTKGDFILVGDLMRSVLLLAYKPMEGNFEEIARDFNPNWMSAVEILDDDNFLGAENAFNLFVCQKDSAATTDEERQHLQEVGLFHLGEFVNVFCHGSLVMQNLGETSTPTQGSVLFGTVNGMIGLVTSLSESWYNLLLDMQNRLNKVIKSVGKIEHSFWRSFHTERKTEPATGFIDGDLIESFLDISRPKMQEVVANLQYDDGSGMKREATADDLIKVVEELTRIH

IKZF2 = molecular target: T3, IKZF2 (Homo sapiens, UniProt Q96SW2+Q9UKS7); experiment: Western-blot assay of substrate protein degradation in hPBMCs, IKZF2; assay type: cell-based; conditions: 24 hours of compound treatment, compounds tested at 50 nM and 500 nM (concentration of the table not stated)
T3 construct: endogenous in cells; host or cells: hPBMCs (Milecell Biotechnologies)
T3 sequence (Q9UKS7 whole entry): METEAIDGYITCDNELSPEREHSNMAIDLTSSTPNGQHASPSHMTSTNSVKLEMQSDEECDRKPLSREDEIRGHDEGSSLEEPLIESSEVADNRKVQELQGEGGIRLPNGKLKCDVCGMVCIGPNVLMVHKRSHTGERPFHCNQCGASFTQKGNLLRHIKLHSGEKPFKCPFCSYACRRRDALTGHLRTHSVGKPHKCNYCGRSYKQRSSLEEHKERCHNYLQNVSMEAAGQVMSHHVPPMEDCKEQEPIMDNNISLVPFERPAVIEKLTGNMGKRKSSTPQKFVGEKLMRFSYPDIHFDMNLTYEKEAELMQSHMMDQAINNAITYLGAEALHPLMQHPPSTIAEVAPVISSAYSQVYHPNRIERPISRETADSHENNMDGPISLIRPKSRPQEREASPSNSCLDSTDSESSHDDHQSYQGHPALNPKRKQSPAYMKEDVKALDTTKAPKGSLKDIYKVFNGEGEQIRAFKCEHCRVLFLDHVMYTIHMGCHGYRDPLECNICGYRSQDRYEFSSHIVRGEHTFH
T3 sequence (Q96SW2 whole entry): as the sequence (Q96SW2 whole entry) above
T3 sequence (Q16531 whole entry partner): as the sequence (Q16531 whole entry partner) above

IKZF3 = molecular target: T4, IKZF3 (Homo sapiens, UniProt Q96SW2+Q9UKT9); experiment: Western-blot assay of substrate protein degradation in hPBMCs, IKZF3; assay type: cell-based; conditions: 24 hours of compound treatment, compounds tested at 50 nM and 500 nM (concentration of the table not stated)
T4 construct: endogenous in cells; host or cells: hPBMCs (Milecell Biotechnologies)
T4 sequence (Q9UKT9 whole entry): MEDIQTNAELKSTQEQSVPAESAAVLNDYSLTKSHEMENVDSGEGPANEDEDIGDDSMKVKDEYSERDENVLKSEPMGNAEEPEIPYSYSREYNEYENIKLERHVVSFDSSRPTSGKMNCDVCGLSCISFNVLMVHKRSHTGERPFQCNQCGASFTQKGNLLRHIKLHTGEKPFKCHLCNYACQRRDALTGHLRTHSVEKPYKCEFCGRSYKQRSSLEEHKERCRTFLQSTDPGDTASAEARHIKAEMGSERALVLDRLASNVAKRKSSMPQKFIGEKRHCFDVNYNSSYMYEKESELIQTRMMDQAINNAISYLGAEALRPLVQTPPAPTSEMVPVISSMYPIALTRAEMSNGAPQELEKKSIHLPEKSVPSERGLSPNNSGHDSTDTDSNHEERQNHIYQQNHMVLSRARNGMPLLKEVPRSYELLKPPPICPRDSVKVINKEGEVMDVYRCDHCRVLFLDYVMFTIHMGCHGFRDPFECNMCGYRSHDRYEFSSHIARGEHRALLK
T4 sequence (Q96SW2 whole entry): as the sequence (Q96SW2 whole entry) above
T4 sequence (Q16531 whole entry partner): as the sequence (Q16531 whole entry partner) above

CK1α = molecular target: T5, CK1α (Homo sapiens, UniProt P48729+Q96SW2); experiment: Western-blot assay of substrate protein degradation in hPBMCs, CK1α; assay type: cell-based; conditions: 24 hours of compound treatment, compounds tested at 50 nM and 500 nM (concentration of the table not stated)
T5 construct: endogenous in cells; host or cells: hPBMCs (Milecell Biotechnologies)
T5 sequence (P48729 whole entry): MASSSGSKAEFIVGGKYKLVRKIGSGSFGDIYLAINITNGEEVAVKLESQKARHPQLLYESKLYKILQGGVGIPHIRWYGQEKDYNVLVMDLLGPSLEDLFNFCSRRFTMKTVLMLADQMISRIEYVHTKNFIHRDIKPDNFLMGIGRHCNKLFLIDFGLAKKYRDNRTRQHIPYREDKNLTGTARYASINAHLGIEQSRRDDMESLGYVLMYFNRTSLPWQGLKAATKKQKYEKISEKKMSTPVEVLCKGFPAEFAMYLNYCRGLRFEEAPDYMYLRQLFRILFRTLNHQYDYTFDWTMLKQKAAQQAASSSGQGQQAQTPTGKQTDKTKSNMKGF
T5 sequence (Q96SW2 whole entry): as the sequence (Q96SW2 whole entry) above
T5 sequence (Q16531 whole entry partner): as the sequence (Q16531 whole entry partner) above

GSPT1 = molecular target: T6, GSPT1 (Homo sapiens, UniProt P15170+Q96SW2); experiment: Western-blot assay of substrate protein degradation in hPBMCs, GSPT1; assay type: cell-based; conditions: 24 hours of compound treatment, compounds tested at 50 nM and 500 nM (concentration of the table not stated)
T6 construct: endogenous in cells; host or cells: hPBMCs (Milecell Biotechnologies)
T6 sequence (P15170 whole entry): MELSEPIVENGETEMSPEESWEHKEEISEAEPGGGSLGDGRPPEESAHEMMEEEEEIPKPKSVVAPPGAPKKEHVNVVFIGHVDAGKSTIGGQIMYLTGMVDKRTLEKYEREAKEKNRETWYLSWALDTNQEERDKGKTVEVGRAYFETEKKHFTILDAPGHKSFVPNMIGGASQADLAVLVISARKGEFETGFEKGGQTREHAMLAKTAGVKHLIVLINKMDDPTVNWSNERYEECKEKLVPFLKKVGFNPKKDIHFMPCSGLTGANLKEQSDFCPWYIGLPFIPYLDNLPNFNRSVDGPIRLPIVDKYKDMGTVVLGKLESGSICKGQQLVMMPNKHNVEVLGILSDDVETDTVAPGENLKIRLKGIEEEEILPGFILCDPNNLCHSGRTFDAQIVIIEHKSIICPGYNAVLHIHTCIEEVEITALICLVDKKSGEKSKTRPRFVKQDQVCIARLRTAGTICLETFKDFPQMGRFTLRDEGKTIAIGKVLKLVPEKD
T6 sequence (Q96SW2 whole entry): as the sequence (Q96SW2 whole entry) above
T6 sequence (Q16531 whole entry partner): as the sequence (Q16531 whole entry partner) above

[1] = molecular target: T7, human Cereblon WT GST-tagged protein (Homo sapiens, UniProt Q96SW2); experiment: CRBN-binding affinity by HTRF (CEREBLON BINDING kit)
T7 construct: purchased CISBIO 64BDCRBNPEH
T7 sequence (Q96SW2 whole entry): as the sequence (Q96SW2 whole entry) above

SR = experiment: Tumor cell proliferation inhibition (CellTiter-Meiluncell Luminescent Cell Viability Assay), SR; conditions: Homo sapiens, 96 h, read-out: inhibitory activity (IC50, nM) against tumor cells proliferation, SR
Vcap = experiment: Tumor cell proliferation inhibition (CellTiter-Meiluncell Luminescent Cell Viability Assay), Vcap; conditions: Homo sapiens, 96 h, read-out: inhibitory activity (IC50, nM) against tumor cells proliferation, Vcap
Experimental: (§1) The tumor cells used herein were cultured in a cell culture medium listed in table 2 at 37°C in an incubator with 5% CO2. Prior to experimentation, all cell lines used were correctly identified by STR profiling, and tested negative for mycoplasma contamination using a mycoplasma detection kit through routine screenings.
(§2) On the following day, the test compounds of the present disclosure were subjected to serial dilution. […] Subsequently, 0.5 µL of the test compound dilution was transferred into the 96-well plate containing the cells, with each well containing 100 µL of cell culture medium. […] Into the 96-well plate, the diluted test compounds and corresponding detection reagents were added, resulting in final test compound concentrations of 500 nM and 10 nM, respectively. The experimental procedure is described below using the diluted 2 µM test compound as an example.
(§3) After the cells were treated with the compounds of the present disclosure for a specified period (the treatment durations were shown in Table 3), the cell viability assay reagent was added to the culture medium according to the kit's instructions to determine cell viability. […] All controls were treated using the same procedure as the compounds of the present disclosure. The growth inhibition curves for the compounds of the present disclosure were plotted using Prism GraphPad software, and the IC50 values were calculated therefrom.

MM.1R = experiment: Tumor cell proliferation inhibition (CellTiter-Meiluncell Luminescent Cell Viability Assay), MM.1R; conditions: Homo sapiens, 96 h, read-out: inhibitory activity (IC50, nM) against tumor cells proliferation, MM.1R
SW620 = experiment: Tumor cell proliferation inhibition (CellTiter-Meiluncell Luminescent Cell Viability Assay), SW620; conditions: Homo sapiens, SW-620, 96 h, read-out: inhibitory activity (IC50, nM) against tumor cells proliferation, SW620
Jurkat = experiment: Tumor cell proliferation inhibition (CellTiter-Meiluncell Luminescent Cell Viability Assay), Jurkat; conditions: Homo sapiens, 96 h, read-out: inhibitory activity (IC50, nM) against tumor cells proliferation, Jurkat
Experimental: as §1, §2, §3

CAL-62 = experiment: Tumor cell proliferation inhibition (CellTiter-Meiluncell Luminescent Cell Viability Assay), CAL-62; conditions: Homo sapiens, CAL-62, 96 h, read-out: inhibitory activity (IC50, nM) against tumor cells proliferation, CAL-62
[2] = system: Human acute T lymphocytic leukemia cells (Molt-4); experiment: Tumor cell proliferation inhibition (CellTiter-Meiluncell Luminescent Cell Viability Assay), Molt-4; conditions: MOLT-4, 96 h, read-out: inhibitory activity (IC50, nM) against tumor cells proliferation, Molt 4
MGC803 = experiment: Tumor cell proliferation inhibition (CellTiter-Meiluncell Luminescent Cell Viability Assay), MGC803; conditions: Homo sapiens, MGC-803, 96 h, read-out: inhibitory activity (IC50, nM) against tumor cells proliferation, MGC803
CCRF-CEM = experiment: Tumor cell proliferation inhibition (CellTiter-Meiluncell Luminescent Cell Viability Assay), CCRF-CEM; conditions: Homo sapiens, 96 h, read-out: inhibitory activity (IC50, nM) against tumor cells proliferation, CCRF-CEM
NCI-H1975 = experiment: Tumor cell proliferation inhibition (CellTiter-Meiluncell Luminescent Cell Viability Assay), NCI-H1975; conditions: Homo sapiens, NCI-H1975, 96 h, read-out: inhibitory activity (IC50, nM) against tumor cells proliferation, H1975
[3] = system: Human breast cancer cells (MDA-MB-231); experiment: Tumor cell proliferation inhibition (CellTiter-Meiluncell Luminescent Cell Viability Assay), MDA-MB-231; conditions: MDA-MB-231, 96 h, read-out: inhibitory activity (IC50, nM) against tumor cells proliferation, MDA-MB-231
[4] = HTRF inhibitory activity, CEREBLON BINDING kit; read-out: HTRF IC50

Row | SMILES | Weel substrate protein remaining % (WEE1) | IKZF 1 substrate protein remaining % (IKZF1) | IKZF2 substrate protein remaining % (IKZF2) | IKZF3 substrate protein remaining % (IKZF3) | CK1a substrate protein remaining % (CK1α) | GSPT1 substrate protein remaining % (GSPT1) | IC50 ([1]; read-out: HTRF IC50; HTRF inhibitory activity, CEREBLON BINDING kit) [nM] | IC50 (SR) [nM] | IC50 (Vcap) [nM] | IC50 (MM.1R) [nM] | IC50 (SW620) [nM] | IC50 (Jurkat) [nM] | IC50 (CAL-62) [nM] | IC50 [2] [nM] | IC50 (MGC803) [nM] | IC50 (CCRF-CEM) [nM] | IC50 (NCI-H1975) [nM] | IC50 [3] [nM] | IC50 [1, 4] [nM]
1 | O=C1CCC(N2Cc3cc(CN4CCN(c5ccc(Br)cc5)CC4)ccc3C2=O)C(=O)N1 (centres unmarked) | B (80%< substrate protein remaining %≤ 100%) | B (80%< substrate protein remaining %≤ 100%) | B (80%< substrate protein remaining %≤ 100%) | B (80%< substrate protein remaining %≤ 100%) | A (0% ≤ substrate protein remaining % ≤ 80%) | A (0% ≤ substrate protein remaining % ≤ 80%) | 500 to 1000 | 100 to 500 | 10 to 50 | 5 to 10 | 100 to 500 | 1 to 5 | 10 to 50 | 5 to 10 | 100 to 500 | 5 to 10 | 100 to 500 | 100 to 500 | –
2 | O=C1CCC(N2Cc3cc(CN4CCN(c5ccc(Cl)cn5)CC4)ccc3C2=O)C(=O)N1 (centres unmarked) [GT-04431, 3-(5-((4-(5-chloropyridin-2-yl)piperazin-1-yl)methyl)-1-oxoisoindolin-2-yl)piperidine-2,6-dione] | A (0% ≤ substrate protein remaining % ≤ 80%) | A (0% ≤ substrate protein remaining % ≤ 80%) | A (0% ≤ substrate protein remaining % ≤ 80%) | A (0% ≤ substrate protein remaining % ≤ 80%) | A (0% ≤ substrate protein remaining % ≤ 80%) | A (0% ≤ substrate protein remaining % ≤ 80%) | – | 100 to 500 | 10 to 50 | 5 to 10 | 50 to 100 | 1 to 5 | 5 to 10 | 10 to 50 | 50 to 100 | 1 to 5 | 50 to 100 | 50 to 100 | 500 to 1000
3 | O=C1CCC(N2Cc3cc(CN4CCN(c5ccc(Cl)c(Cl)c5)CC4)ccc3C2=O)C(=O)N1 (centres unmarked) [GT-04437, 3-(5-((4-(3,4-dichlorophenyl)piperazin-1-yl)methyl)-1-oxoisoindolin-2-yl)piperidine-2,6-dione] | A (0% ≤ substrate protein remaining % ≤ 80%) | A (0% ≤ substrate protein remaining % ≤ 80%) | A (0% ≤ substrate protein remaining % ≤ 80%) | A (0% ≤ substrate protein remaining % ≤ 80%) | A (0% ≤ substrate protein remaining % ≤ 80%) | A (0% ≤ substrate protein remaining % ≤ 80%) | – | 100 to 500 | 10 to 50 | 5 to 10 | 50 to 100 | 1 to 5 | 10 to 50 | 1 to 5 | 50 to 100 | 5 to 10 | 50 to 100 | 100 to 500 | 500 to 1000
4 | O=C1CCC(N2Cc3cc(CN4CCN(c5ccccc5)CC4)ccc3C2=O)C(=O)N1 (centres unmarked) [GT-04446, 3-(1-oxo-5-((4-phenylpiperazin-1-yl)methyl)isoindolin-2-yl)piperidine-2,6-dione] | A (0% ≤ substrate protein remaining % ≤ 80%) | A (0% ≤ substrate protein remaining % ≤ 80%) | A (0% ≤ substrate protein remaining % ≤ 80%) | A (0% ≤ substrate protein remaining % ≤ 80%) | A (0% ≤ substrate protein remaining % ≤ 80%) | A (0% ≤ substrate protein remaining % ≤ 80%) | – | 100 to 500 | 10 to 50 | 5 to 10 | 50 to 100 | 1 to 5 | 5 to 10 | 1 to 5 | 100 to 500 | 5 to 10 | 50 to 100 | 100 to 500 | 500 to 1000
5 | O=C1CCC(N2Cc3cc(CN4CCN(c5cccc(F)c5)CC4)ccc3C2=O)C(=O)N1 (centres unmarked) [GT-04452, 3-(5-((4-(3-fluorophenyl)piperazin-1-yl)methyl)-1-oxoisoindolin-2-yl)piperidine-2,6-dione] | A (0% ≤ substrate protein remaining % ≤ 80%) | B (80%< substrate protein remaining %≤ 100%) | B (80%< substrate protein remaining %≤ 100%) | B (80%< substrate protein remaining %≤ 100%) | A (0% ≤ substrate protein remaining % ≤ 80%) | A (0% ≤ substrate protein remaining % ≤ 80%) | – | 100 to 500 | 10 to 50 | 10 to 50 | 100 to 500 | 5 to 10 | 10 to 50 | 5 to 10 | 100 to 500 | 5 to 10 | 100 to 500 | 100 to 500 | 500 to 1000
6 | O=C1CCC(N2Cc3cc(CN4CCN(c5ccc(F)cc5)CC4)ccc3C2=O)C(=O)N1 (centres unmarked) [GT-04453, 3-(5-((4-(4-fluorophenyl)piperazin-1-yl)methyl)-1-oxoisoindolin-2-yl)piperidine-2,6-dione] | A (0% ≤ substrate protein remaining % ≤ 80%) | A (0% ≤ substrate protein remaining % ≤ 80%) | A (0% ≤ substrate protein remaining % ≤ 80%) | A (0% ≤ substrate protein remaining % ≤ 80%) | A (0% ≤ substrate protein remaining % ≤ 80%) | A (0% ≤ substrate protein remaining % ≤ 80%) | – | 500 to 1000 | 50 to 100 | 10 to 50 | 100 to 500 | 5 to 10 | 10 to 50 | 10 to 50 | 100 to 500 | 5 to 10 | 100 to 500 | 100 to 500 | 1000 to 1500
7 | O=C1CCC(N2Cc3cc(CN4CCC(c5cccc(C(F)(F)F)c5)CC4)ccc3C2=O)C(=O)N1 (centres unmarked) [GT-04472, 3-(1-oxo-5-((4-(3-(trifluoromethyl)phenyl)piperidin-1-yl)methyl)isoindolin-2-yl)piperidine-2,6-dione] | A (0% ≤ substrate protein remaining % ≤ 80%) | A (0% ≤ substrate protein remaining % ≤ 80%) | A (0% ≤ substrate protein remaining % ≤ 80%) | A (0% ≤ substrate protein remaining % ≤ 80%) | B (80%< substrate protein remaining %≤ 100%) | A (0% ≤ substrate protein remaining % ≤ 80%) | – | 50 to 100 | 10 to 50 | 1 to 5 | 10 to 50 | 1 to 5 | 5 to 10 | 1 to 5 | 50 to 100 | 1 to 5 | 10 to 50 | – | 500 to 1000

Reference: patent EP4745137A1 (Gluetacs Therapeutics (Shanghai) Co., Ltd., priority 2023, dated 2025)
